Data on 1 compound can be found in US10716869B2, “Radiolabeled macrocyclic EGFR inhibitor” (Oncodesign SA, priority 2016, dated 2020).

Converted amounts (≈) assume the structure as drawn. “And” between values parts separate entries of the source, which are not always exact repeats. Identical values can stand only once.

Data set [1] can be described thus: kinetic solubility in PBS at pH 7.4. Type of data set: physicochemical. As to conditions: pH 7.4, aqueous buffer, kinetic from dmso stock. The protocol: The kinetic solubility of the compounds was assessed in PBS at pH 7.4.
In data set [2] the test system is NCI-H1975 tumors (double mutation). As to the kind of experiment: in vivo specificity: competition for uptake of Compound (I). As to conditions: gefitinib 2 mg/rat or Compound (Ia) 1 mg/rat. Also noted: species or system rats.
Another data set has as its system MCF-7. As to the kind of experiment: MTS cell viability assay, 72 hours. Type of data set: cell-based. The note with it: Homo sapiens, MCF7, 72 h, negative control, does not express EGFR, read-out: Cellular IC50 MCF-7. The protocol: (§1) The cell lines that were used to assay the cellular activity of the compounds are detailed in table 3 hereafter:
(§2) Tumor cells grew as monolayer at 37° C. in a humidified atmosphere (5% CO2) in complete culture medium adapted to each cell line. The cellular activity of the compounds was assessed by measuring the viability of cancer cell in MTS assay using a tetrazolium compound (MTS, 3-(4,5-dimethylthiazol-2-yl)-5-(3-carboxymethoxy phenyl)-2-(4-sulfophenyl)-2H-tetrazolium) and an electron coupling reagent named PMS (phenazine methosulfate). MTS is bioreduced by cells into a formazan product that is directly soluble in culture medium without processing. The cells were seeded 24 hours before treatment at the appropriate density in their culture medium to be near 90% of confluence at the end of experiment in vehicle treated conditions. After addition of compounds, the cells were incubated for 72 hours.
Background: Tetrazolium assays rely on reduction of a dye to a coloured formazan, in cell work by metabolically active cells.

Data set [3] has as its system NCI-H1975 (EGFR L858R/T790M). As to the kind of experiment: MTS cell viability assay, 72 hours. Type of data set: cell-based. As to conditions: Homo sapiens, NCI-H1975, 72 h, read-out: Cellular IC50 NCI-H1975 (EGFR L858R/T790M). How it is done:
as §1, §2

For data set [4], the system named is NCI-H3255 tumors (simple mutation). The data set can be described thus: in vivo specificity: competition for uptake of Compound (I). Also noted: species or system rats. The note with it: gefitinib 2 mg/rat or Compound (Ia) 1 mg/rat.
A short description of data set [5]: metabolic microsomal stability, human liver microsomes. Type of data set: in vitro ADME. As to conditions: pH 7.4, 0.5 mg/mL protein. How it is done: (§3) Metabolic microsomal stability was performed on human and rat liver microsomes. Microsomes (final protein concentration 0.5 mg/mL), 0.1 M phosphate buffer pH 7.4 and test compound (final substrate concentration=3 μM; final DMSO concentration=0.25%) are pre-incubated at 37° C. prior to the addition of NADPH (final concentration=1 mM) to initiate the reaction. Analysis is done with generic LC-MS/MS conditions to determine half-life and intrinsic clearance using standard equations. […] In human, Compound (Ia) metabolic stability was better than in rat and favorable for clinical studies.
On the technique in general: Microsomes from liver hold many membrane-bound enzymes, among them those of drug oxidation.

Another data set concerns NCI-H3255 (EGFR_L858R). As to the kind of experiment: MTS cell viability assay, 72 hours. Type of data set: cell-based, Human. As to conditions: Homo sapiens, NCI-H3255, 72 h, read-out: Cellular IC50 NCI-H3255 (EGFR_L858R). How it is done: as §1, §2
The test system of a further data set is NCI-H441 (EGFR WT). The data set can be described thus: MTS cell viability assay, 72 hours. The data set is classed as cell-based, Human. As to conditions: Homo sapiens, NCI-H441, 72 h, read-out: Cellular IC50 NCI-H441 (EGFR WT). How it is done: as §1, §2
Data set [6] deals with constitutively active EGFR in NCI-H3255 (Homo sapiens, UniProt P00533, L858R). As to the kind of experiment: EGFR Y1068 phosphorylation, Western blot. (In general: A western blot detects proteins with antibodies after separation by electrophoresis.)
Sequence of constitutively active EGFR in NCI-H3255 (P00533 25-1210 L858R): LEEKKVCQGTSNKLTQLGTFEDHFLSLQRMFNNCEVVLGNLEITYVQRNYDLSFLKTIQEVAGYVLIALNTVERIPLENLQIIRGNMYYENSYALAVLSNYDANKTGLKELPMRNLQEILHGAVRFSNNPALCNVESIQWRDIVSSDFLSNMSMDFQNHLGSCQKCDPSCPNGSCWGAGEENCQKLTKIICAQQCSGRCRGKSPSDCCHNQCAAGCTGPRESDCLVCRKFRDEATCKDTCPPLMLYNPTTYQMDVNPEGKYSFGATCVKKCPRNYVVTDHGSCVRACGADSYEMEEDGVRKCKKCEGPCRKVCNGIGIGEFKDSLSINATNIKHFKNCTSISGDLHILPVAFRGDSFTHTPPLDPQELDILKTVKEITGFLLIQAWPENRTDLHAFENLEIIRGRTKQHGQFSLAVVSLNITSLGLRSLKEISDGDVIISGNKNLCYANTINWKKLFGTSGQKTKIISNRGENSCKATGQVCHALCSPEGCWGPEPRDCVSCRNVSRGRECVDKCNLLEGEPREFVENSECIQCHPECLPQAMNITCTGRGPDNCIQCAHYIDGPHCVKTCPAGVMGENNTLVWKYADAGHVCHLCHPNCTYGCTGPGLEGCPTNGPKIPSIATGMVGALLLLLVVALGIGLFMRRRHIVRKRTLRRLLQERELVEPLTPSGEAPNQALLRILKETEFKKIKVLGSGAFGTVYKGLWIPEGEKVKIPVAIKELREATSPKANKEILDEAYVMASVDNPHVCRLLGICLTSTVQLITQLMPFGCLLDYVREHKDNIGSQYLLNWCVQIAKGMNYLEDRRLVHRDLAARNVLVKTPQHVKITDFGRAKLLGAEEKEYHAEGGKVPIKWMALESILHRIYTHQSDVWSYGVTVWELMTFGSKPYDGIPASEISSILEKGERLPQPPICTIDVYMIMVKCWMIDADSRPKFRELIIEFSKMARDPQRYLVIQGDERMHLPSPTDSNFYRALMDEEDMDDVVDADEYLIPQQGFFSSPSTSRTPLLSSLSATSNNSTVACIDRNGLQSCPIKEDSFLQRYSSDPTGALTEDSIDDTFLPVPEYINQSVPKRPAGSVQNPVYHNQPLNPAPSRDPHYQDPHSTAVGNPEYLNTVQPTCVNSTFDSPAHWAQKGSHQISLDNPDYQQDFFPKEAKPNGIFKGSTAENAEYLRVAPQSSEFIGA
A short description of data set [7]: metabolic microsomal stability, rat liver microsomes. Type of data set: in vitro ADME. As to conditions: pH 7.4, 0.5 mg/mL protein. How it is done: as §3
The subject of the next data set is WT NCI-H441 tumors. As to the kind of experiment: in vivo specificity: competition for uptake of Compound (I). Also noted: species or system rats. As to conditions: gefitinib 2 mg/rat or Compound (Ia) 1 mg/rat.
Data set [8] has as its target T1, EGFR L858R (human, 672-1210) (Homo sapiens, UniProt P00533, L858R).
T1 construct: (human, 672-1210)
The data set can be described thus: radiometric protein kinase assay (33PanQinase Activity Assay). As to conditions: Tests 1-3 are repeat determinations; read-out: Biochemical IC50 EGFR L858R. How it is done:
(§4) The compounds were tested in 100% DMSO, all recombinant protein kinases and substrates with respective concentration are described in table 1.

Data set [9] deals with T2, EGFR wt (human, 672-1210) (Homo sapiens, UniProt P00533).
T2 construct: (human, 672-1210)
T2 sequence (P00533 672-1210): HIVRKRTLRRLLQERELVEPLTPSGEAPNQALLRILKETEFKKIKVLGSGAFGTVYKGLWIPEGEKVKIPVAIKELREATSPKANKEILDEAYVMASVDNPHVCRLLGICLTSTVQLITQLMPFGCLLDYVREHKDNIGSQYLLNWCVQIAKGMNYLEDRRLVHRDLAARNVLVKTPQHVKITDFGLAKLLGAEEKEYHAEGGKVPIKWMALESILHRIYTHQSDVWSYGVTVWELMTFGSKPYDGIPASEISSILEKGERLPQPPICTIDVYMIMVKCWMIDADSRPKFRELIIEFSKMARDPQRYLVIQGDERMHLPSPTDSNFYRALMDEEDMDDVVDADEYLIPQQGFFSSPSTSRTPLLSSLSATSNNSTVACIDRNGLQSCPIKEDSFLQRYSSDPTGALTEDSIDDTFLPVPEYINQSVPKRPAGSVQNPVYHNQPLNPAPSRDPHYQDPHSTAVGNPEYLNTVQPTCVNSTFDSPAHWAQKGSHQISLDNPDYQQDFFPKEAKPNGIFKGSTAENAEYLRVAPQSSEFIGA
The description is as above. The note with it: Tests 1-3 are repeat determinations; read-out: Biochemical IC50 EGFR WT (activated). How it is done:
as §4

Data set [10] addresses T3, EGFR T790M/L858R (human, 672-1210) (Homo sapiens, UniProt P00533, L858R/T790M).
T3 construct: (human, 672-1210)
Described as above. The note with it: Tests 1-3 are repeat determinations; read-out: Biochemical IC50 EGFR L858R/T790M. How it is done:
as §4

In data set [11] the target is EGFR phosphorylation in NCI-H441 (Homo sapiens, UniProt P00533). The data set can be described thus: EGFR Y1068 phosphorylation, Western blot. The note with it: NCI-H441, 10 ng/ml EGF.
Sequence of EGFR phosphorylation in NCI-H441 (P00533 25-1210): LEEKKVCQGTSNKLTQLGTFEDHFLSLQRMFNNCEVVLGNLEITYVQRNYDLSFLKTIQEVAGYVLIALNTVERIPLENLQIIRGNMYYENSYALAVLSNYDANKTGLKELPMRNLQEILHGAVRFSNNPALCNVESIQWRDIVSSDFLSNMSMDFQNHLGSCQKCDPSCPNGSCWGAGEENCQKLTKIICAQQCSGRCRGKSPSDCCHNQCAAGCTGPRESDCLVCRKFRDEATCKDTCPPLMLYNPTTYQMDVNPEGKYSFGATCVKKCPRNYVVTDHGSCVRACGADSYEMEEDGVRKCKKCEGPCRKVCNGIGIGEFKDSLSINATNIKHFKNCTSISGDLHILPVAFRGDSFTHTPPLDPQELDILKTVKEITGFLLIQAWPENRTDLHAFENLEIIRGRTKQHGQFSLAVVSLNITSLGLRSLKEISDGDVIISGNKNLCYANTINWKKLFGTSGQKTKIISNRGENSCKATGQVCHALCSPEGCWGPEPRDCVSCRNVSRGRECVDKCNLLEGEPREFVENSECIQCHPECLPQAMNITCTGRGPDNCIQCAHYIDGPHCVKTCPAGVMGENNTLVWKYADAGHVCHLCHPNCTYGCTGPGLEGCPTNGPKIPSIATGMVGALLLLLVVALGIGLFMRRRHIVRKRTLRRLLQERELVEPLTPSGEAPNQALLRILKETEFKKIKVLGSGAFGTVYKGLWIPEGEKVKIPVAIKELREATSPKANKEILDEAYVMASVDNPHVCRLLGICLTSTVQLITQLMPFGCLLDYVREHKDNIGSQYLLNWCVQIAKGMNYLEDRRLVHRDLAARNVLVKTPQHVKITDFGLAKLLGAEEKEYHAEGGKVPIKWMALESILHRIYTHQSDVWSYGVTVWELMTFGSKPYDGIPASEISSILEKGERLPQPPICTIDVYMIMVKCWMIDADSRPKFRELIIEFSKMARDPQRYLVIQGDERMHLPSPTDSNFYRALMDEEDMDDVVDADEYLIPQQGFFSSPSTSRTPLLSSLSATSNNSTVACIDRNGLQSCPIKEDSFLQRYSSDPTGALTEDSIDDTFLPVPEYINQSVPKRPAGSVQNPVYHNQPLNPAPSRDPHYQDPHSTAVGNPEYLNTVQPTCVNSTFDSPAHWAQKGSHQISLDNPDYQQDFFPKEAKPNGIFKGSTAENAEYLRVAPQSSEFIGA
Data set [12] addresses double mutant EGFR expressed by NCI-H1975 (Homo sapiens, UniProt P00533, L858R/T790M). The data set can be described thus: EGFR Y1068 phosphorylation, Western blot.

T3 sequence (P00533 672-1210 T790M/L858R): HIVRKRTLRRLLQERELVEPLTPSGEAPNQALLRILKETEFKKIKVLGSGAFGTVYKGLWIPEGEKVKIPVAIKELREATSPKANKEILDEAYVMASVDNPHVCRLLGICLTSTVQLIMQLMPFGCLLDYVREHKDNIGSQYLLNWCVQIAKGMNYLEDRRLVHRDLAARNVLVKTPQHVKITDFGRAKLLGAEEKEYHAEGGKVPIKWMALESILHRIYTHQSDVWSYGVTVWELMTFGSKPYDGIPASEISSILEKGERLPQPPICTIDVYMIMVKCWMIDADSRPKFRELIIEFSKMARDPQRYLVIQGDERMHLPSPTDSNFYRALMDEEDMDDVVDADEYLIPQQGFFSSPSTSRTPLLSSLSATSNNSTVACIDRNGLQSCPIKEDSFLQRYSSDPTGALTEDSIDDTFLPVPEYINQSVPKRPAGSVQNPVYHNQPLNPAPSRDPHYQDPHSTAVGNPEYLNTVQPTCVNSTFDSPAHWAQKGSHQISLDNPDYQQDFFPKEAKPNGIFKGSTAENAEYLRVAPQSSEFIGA
T1 sequence (P00533 672-1210 L858R): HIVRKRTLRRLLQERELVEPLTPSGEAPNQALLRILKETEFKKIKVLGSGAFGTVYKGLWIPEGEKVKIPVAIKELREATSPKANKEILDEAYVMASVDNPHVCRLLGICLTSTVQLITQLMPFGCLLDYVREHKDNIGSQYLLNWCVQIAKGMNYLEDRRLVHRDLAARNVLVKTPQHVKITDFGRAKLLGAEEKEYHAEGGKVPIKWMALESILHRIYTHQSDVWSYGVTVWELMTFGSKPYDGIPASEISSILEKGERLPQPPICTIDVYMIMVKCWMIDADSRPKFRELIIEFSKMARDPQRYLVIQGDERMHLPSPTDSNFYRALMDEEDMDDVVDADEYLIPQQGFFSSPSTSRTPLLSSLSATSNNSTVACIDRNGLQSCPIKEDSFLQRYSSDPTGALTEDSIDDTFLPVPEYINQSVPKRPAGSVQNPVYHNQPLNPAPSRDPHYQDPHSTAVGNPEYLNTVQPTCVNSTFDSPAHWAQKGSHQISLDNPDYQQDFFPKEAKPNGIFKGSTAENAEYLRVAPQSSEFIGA

`CC(C)C1NC(=O)Cc2ccc(Cl)cc2Nc2ncnc3cc(OCCF)c(cc23)OCCCNC1=O` (stereo not drawn) [Compound (Ia)]: the solubility (kinetic) (in general, the concentration staying in solution when a stock, usually in DMSO, is diluted into the medium) in data set [1] was found to be 88 µM (≈ 46.6 µg/mL). The “change of T/M ratios of Compound (I) after competition” value in [2] was −55%. Also, the IC50 with MCF-7 is 62100 nM; in data set [3], 5000 ± 1400 nM; in the data set with NCI-H3255 (EGFR_L858R), 6 ± 2 nM; with NCI-H441 (EGFR WT), 34700 ± 24000 nM; in data set [8], 3 nM and 8 nM and 4.1 nM; in [9], 3.2 nM and 5 nM and 5.7 nM. For the same compound, the IC50 in data set [10] is 372 nM and 990 nM and 246 nM. Besides, the “decrease of T/M ratios of Compound (I) by competition” value in data set [4] is on record as 52%. Also, the values for the microsomal CLint at 3 μM in [5] and in [7] were 7.76 ± 2.53 µL/min/mg and 37.9 ± 1.89 µL/min/mg, respectively. Also, the values for the half-life at 3 μM in data set [5] (read-out: human microsomal stability t1/2) and in [7] (read-out: rat microsomal stability t1/2) were 2.98 h and 0.608 h, respectively. For the same compound, the “concentration at which full inhibition of constitutively active EGFR was observed” value in data set [6] is reported as around 100 nM. The “change of uptake of Compound (I) after competition” value in the data set with WT NCI-H441 tumors is 5%. Besides, the “inhibition of EGF-induced EGFR Y1068 phosphorylation” value in data set [11] is “almost full inhibition observed at 1 μM”. Further, the “inhibition of constitutively active double mutant EGFR” value in data set [12] is on record as “partially inhibit EGFR activity at 10 μM”.
